Patent US7453009B2, “Hydroxybiphenyl carboxylic acids and derivatives, method for producing the same and their use” (Sanofi-Aventis Deutschland GmbH, priority 2004, dated 2008)

Target: T1, recombinant hPTP1B (phosphotyrosine phosphatase 1B) (Homo sapiens, UniProt P18031)
T1 construct: but without the carboxy-terminal hydrophobic region (corresponding to 1-299 aa); made in house; host or cells: Sf9 insect cells (baculovirus, Bac-to-Bac, pFASTBAC)
T1 sequence (P18031 1-299): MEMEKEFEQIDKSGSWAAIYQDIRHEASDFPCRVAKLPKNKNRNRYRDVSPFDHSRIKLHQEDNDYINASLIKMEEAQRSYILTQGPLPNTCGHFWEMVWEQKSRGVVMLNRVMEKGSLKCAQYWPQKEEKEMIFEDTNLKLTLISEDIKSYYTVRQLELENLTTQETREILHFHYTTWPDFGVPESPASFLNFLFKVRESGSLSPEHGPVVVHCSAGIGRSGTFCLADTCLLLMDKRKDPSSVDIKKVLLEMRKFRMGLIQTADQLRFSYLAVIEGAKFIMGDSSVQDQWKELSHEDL
Assay: Enzymatic test for inhibition of a phosphatase (phosphopeptide dephosphorylation / p-nitrophenyl phosphate cleavage)
Type: biochemical
Settings: Table 3 Biological activity; inhibition of PTP1B; table does not say which substrate format (A phosphopeptide or B pNPP)
Description: Enzymatic Test Systems for Detecting Inhibition of a Phosphatase
The compounds of the formula I were tested for their phosphatase-inhibiting effect in an in vitro assay. The enzyme preparation and the performance of the assay was carried out as follows.
A) Cell Culture: • Sf9 cells (=Spodoptera frugiperda cell type; obtainable from invitrogen) are cultured in Grace's supplemented medium (Gibco-BRL) with 10% heat-inactivated fetal calf serum (Gibco-BRL) in spinner flasks at 28° C. in accordance with the protocol of Summers and Smith (A Manual for Methods for Baculovirus Vectors and Insect Culture Procedures [Bulletin No. 15555]. Texas A & M University, Texas Agricultural Experiment Station, College Station, Tex., 1987). • Construction of recombinant Baculovirus transfer vectors: cDNA coding for the regulatory and catalytic domains of human PTP1B, but without the carboxy-terminal hydrophobic region (corresponding to 1-299 aa) was obtained by polymerase chain reaction via primers with attached cloning sites and suitable cDNA templates (obtainable for example from invitrogen) and then cloned into baculovirus expression vectors (Amersham Pharmacia Biotech.). The recombinant baculoviruses were prepared with the aid of the Bac-to-Bac baculovirus expression system (obtainable from Gibco-BRL). The gene was cloned into the pFASTBAC donor plasmid (obtainable from Life Technologies). The resulting plasmid was transformed into competent DH10BAC Escherichia coli cells (obtainable from Life Technologies). After transposition and antibiotic selection, the recombinant plasmid DNA was isolated from selected E. coli colonies and then used for the transfection of Sf9 insect cells. The virus particle in the supernatant medium was amplified three times up to a viral stock volume of 500 ml.
B) Production of Recombinant Protein: • Baculovirus infection of a 500 ml spinner culture of Sf9 cells was essentially carried out as described by Summers and Smith (see above). Sf9 cells at a density of 1-3×10^6 cells/ml were pelleted by centrifugation at 300 g for 5 min, the supernatant was removed, and the cells were resuspended in a density of 1×10^7 cells/ml in a suitable recombinant viral stock (MOI 10). After careful shaking at room temperature for 1.5 h, fresh medium was added in order to achieve a cell density of 1×10^6 cells/ml. The cells were then cultured in the suspension at 28° C. for suitable periods after postinfection.
C) Cellular Fractionation and Complete Cell Extracts of Infected Sf9 Cells: • After the postinfection, aliquots were subjected to an analysis of protein expression by SDS-PAGE and Western blot analysis. The cellular fractionation was carried out as described (Cromlish, W. and Kennedy, B. Biochem. Pharmacol. 52: 1777-1785, 1996). Complete cell extracts were obtained from 1 ml aliquots of the infected Sf9 cells after certain times postinfection. The pelleted cells (300×g, 5 min) were washed once in phosphate-buffered saline (4° C.), resuspended in 50 μl of water and disrupted by repeated freezing/thawing. Protein concentrations were determined with the aid of the Bradford method and bovine serum albumin as standard.
A) Dephosphorylation of a Phosphopeptide: • This assay is based on the release of phosphate from a consensus substrate peptide which is detected in the nanomolar concentration range by the malachite green/ammonium molybdate method (Lanzetta, P. A., Alvarez, L. J., Reinach, P. S., Candia, O. A. Anal Biochem. 100: 95-97, 1979) adapted for the microtiter plate format. The dodecatrisphosphopeptide TRDIYETDYYRK (Biotrend, Cologne) corresponds to amino acids 1142-1153 of the catalytic domain of the insulin receptor and is (auto)phosphorylated on tyrosine residues 1146, 1150 and 1151. […]

Row | IC50 | Structure (SMILES)
1 | 1200 nM | COc1ccc(CN(Cc2ccc(-c3ccc(O)c(C(=O)O)c3)cc2)C(=O)c2ccc3c(c2)OCO3)cc1 [Example 2, 4′-{[(Benzo[1,3]dioxole-5-carbonyl)-(4-methoxybenzyl)amino]-methyl}-4-hydroxybiphenyl-3-carboxylic acid]
2 | 1600 nM | O=C(O)c1cc(-c2ccc(CN(CCc3ccccc3)C(=O)c3ccc4c(c3)OCO4)cc2)ccc1O [Example 11, 4′-{[(Benzo[1,3]dioxole-5-carbonyl)phenethylamino]methyl}-4-hydroxybiphenyl-3-carboxylic acid]
3 | 1500 nM | CCCCCN(Cc1ccc(-c2ccc(O)c(C(=O)O)c2)cc1)C(=O)c1ccc2c(c1)OCO2 [Example 15, 4′-{[(Benzo[1,3]dioxole-5-carbonyl)pentylamino]methyl}-4-hydroxybiphenyl-3-carboxylic acid]
4 | 1300 nM | O=C(O)c1cc(-c2ccc(CN(Cc3ccccc3)C(=O)c3ccco3)cc2)ccc1O [Example 22, 4′-{[Benzyl(furan-2-carbonyl)amino]methyl}-4-hydroxybiphenyl-3-carboxylic acid]
5 | 1450 nM | O=C(O)c1cc(-c2ccc(CN(Cc3ccc(F)cc3)C(=O)/C=C/c3ccccc3)cc2)ccc1O [Example 18, 4′-{[(4-Fluorobenzyl)-(3-phenylacryloyl)amino]methyl}-4-hydroxybiphenyl-3-carboxylic acid]
6 | 1700 nM | COc1cccc(C(=O)N(Cc2ccc(C)cc2)Cc2ccc(-c3ccc(O)c(C(=O)O)c3)cc2)c1 [Example 13, 4-Hydroxy-4′-{[(3-methoxybenzoyl)-(4-methylbenzyl)amino]methyl}-biphenyl-3-carboxylic acid]
7 | 1800 nM | O=C(O)c1cc(-c2ccc(CN(CC3CC3)C(=O)c3ccc4c(c3)OCO4)cc2)ccc1O [Example 14, 4′-{[(Benzo[1,3]dioxole-5-carbonyl)cyclopropylmethylamino]methyl}-4-hydroxybiphenyl-3-carboxylic acid]
8 | 600 nM | O=C(O)c1cc(-c2ccc(CN(Cc3ccccc3)C(=O)c3ccc(Br)cc3)cc2)ccc1O [Example 21, 4′-{[Benzyl-(4-bromobenzoyl)amino]methyl}-4-hydroxybiphenyl-3-carboxylic acid]
9 | 1280 nM | Cc1ccc(CN(Cc2ccc(-c3ccc(O)c(C(=O)O)c3)cc2)C(=O)c2ccc3c(c2)OCO3)cc1 [Example 19, 4′-{[(Benzo[1,3]dioxole-5-carbonyl)-(4-methylbenzyl)amino]methyl}-4-hydroxy-biphenyl-3-carboxylic acid]
10 | 1900 nM | O=C(O)c1cc(-c2ccc(CN(Cc3ccc(F)cc3)C(=O)c3ccc4c(c3)OCO4)cc2)ccc1O [Example 16, 4′-{[(Benzo[1,3]dioxole-5-carbonyl)-(4-fluorobenzyl)amino]methyl}-4-hydroxy-biphenyl-3-carboxylic acid]
11 | 1500 nM | O=C(O)c1cc(-c2ccc(CN(Cc3ccccc3)C(=O)c3ccc4c(c3)OCO4)cc2)ccc1O [Example 3, 4′-{[(Benzo[1,3]dioxole-5-carbonyl)benzylamino]methyl}-4-hydroxybiphenyl-3-carboxylic acid]
12 | 1600 nM | O=C(O)c1cc(-c2ccc(CN(CC3CC3)C(=O)C3CCCCC3)cc2)ccc1O [Example 5, 4′-[(Cyclohexanecarbonylcyclopropylmethylamino)methyl]-4-hydroxybiphenyl-3-carboxylic acid]
13 | 1000 nM | Cc1ccc(CN(Cc2ccc(-c3ccc(O)c(C(=O)O)c3)cc2)C(=O)c2ccc(Br)cc2)cc1 [Example 7, 4′-{[(4-Bromobenzoyl)-(4-methylbenzyl)amino]methyl}-4-hydroxybiphenyl-3-carboxylic acid]
14 | 1200 nM | COc1ccccc1CN(Cc1ccc(-c2ccc(O)c(C(=O)O)c2)cc1)C(=O)c1ccc(Br)cc1 [Example 1, 4′-{[(4-Bromobenzoyl)-(2-methoxybenzyl)amino]methyl}-4-hydroxybiphenyl-3-carboxylic acid]
15 | 1300 nM | COc1ccccc1CN(Cc1ccc(-c2ccc(O)c(C(=O)O)c2)cc1)C(=O)C1CCCCC1 [Example 6, 4′-{[Cyclohexanecarbonyl-(2-methoxybenzyl)amino]methyl}-4-hydroxybiphenyl-3-carboxylic acid]
16 | 1800 nM | O=C(O)c1cc(-c2ccc(CN(C(=O)c3ccc4c(c3)OCO4)C3CCCC3)cc2)ccc1O [Example 20, 4′-{[(Benzo[1,3]dioxole-5-carbonyl)cyclopentylamino]methyl}-4-hydroxy-biphenyl-3-carboxylic acid]
17 | 1900 nM | CCCCC(=O)N(Cc1ccc(-c2ccc(O)c(C(=O)O)c2)cc1)CC1CC1 [Example 8, 4′-[(Cyclopropylmethylpentanoylamino)methyl]-4-hydroxybiphenyl-3-carboxylic acid]
18 | 1400 nM | COc1cccc(C(=O)N(Cc2ccc(-c3ccc(O)c(C(=O)O)c3)cc2)Cc2ccccc2OC)c1 [Example 4, 4-Hydroxy-4′-{[(3-methoxybenzoyl)-(2-methoxybenzyl)amino]-methyl}biphenyl-3-carboxylic acid]
19 | 500 nM | O=C(O)c1cc(-c2ccc(CN(Cc3ccc(F)cc3)C(=O)c3ccc(Br)cc3)cc2)ccc1O [Example 23, 4′-{[(4-Bromobenzoyl)-(4-fluorobenzyl)amino]methyl}-4-hydroxybiphenyl-3-carboxylic acid]
20 | 600 nM | CCCCC(=O)N(Cc1ccc(OC)cc1)Cc1ccc(-c2ccc(O)c(C(=O)O)c2)cc1 [Example 24, 4-Hydroxy-4′-{[(4-methoxybenzyl)pentanoylamino]methyl}-biphenyl-3-carboxylic acid]
21 | 1600 nM | COc1cccc(C(=O)N(Cc2ccc(F)cc2)Cc2ccc(-c3ccc(O)c(C(=O)O)c3)cc2)c1 [Example 17, 4′-{[(4-Fluorobenzyl)-(3-methoxybenzoyl)amino]methyl}-4-hydroxybiphenyl-3-carboxylic acid]
22 | 1600 nM | COc1cccc(C(=O)N(Cc2ccccc2)Cc2ccc(-c3ccc(O)c(C(=O)O)c3)cc2)c1 [Example 12, 4′-{[Benzyl-(3-methoxybenzoyl)amino]methyl}-4-hydroxybiphenyl-3-carboxylic acid]
23 | 1600 nM | Cc1ccc(CN(Cc2ccc(-c3ccc(O)c(C(=O)O)c3)cc2)C(=O)C2CCCCC2)cc1 [Example 10, 4′-{[Cyclohexanecarbonyl-(4-methylbenzyl)amino]methyl}-4-hydroxybiphenyl-3-carboxylic acid]
